Test results reported in article PMC4894406, “Results of an abbreviated phase-II study with the Akt Inhibitor MK-2206 in Patients with Advanced Biliary Cancer” (Scientific Reports, 2015).
“Also recorded” adds a separate entry of the source.

How the values were obtained:
CYP3A = system: CYP3A; design: method as in PMID 24387695; settings: at 0.1 to 10 μM; cited from earlier work
human Akt (Akt-1) = settings: cited from earlier work
[1] = system: advanced, refractory biliary cancer; assay: Phase II study: efficacy (RECIST 1.1, PFS, OS); format: in vivo, human; settings: for Overall Survival / Progression-Free Survival: 200 mg weekly (text b31 gives months)
Excerpt: This was a National Cancer Institute (NCI)/Cancer Therapy Evaluation Program (CTEP)-sponsored phase II, open label, multicenter trial led by The Ohio State University with the participation of Georgetown University and Case Western University (ClinicalTrials.gov NCT01425879, date of registration 08/27/2011). MK-2206 was provided by NCI/CTEP. The primary objective of this study was to determine the overall response rate (complete response and partial response) as defined by RECIST[17]. Tumor tissue samples were required from all patients prior to enrollment. Secondary objectives included overall survival (OS), progression-free survival (PFS), and the presence of any mutations in the pI3k/AKT pathway and the evaluation of toxicities related to MK-2206. The starting dose and schedule for MK-2206 was 200 mg given weekly in 28-day cycles without interruption. Treatment was administered on an outpatient basis. Two levels of dose reductions were planned (135 mg weekly and 90 mg weekly) with patients taken off the study for additional dose reductions. Radiologic assessment was done by computed tomography every 8 weeks and responses were measured according to RECIST 1.1[17]. Toxicities were defined by the NCI-Common Terminology Criteria of Adverse Events version 4.0.

human Akt (Akt-2) = settings: cited from earlier work
human Akt (Akt-3) = settings: cited from earlier work
breast cancer = system: breast cancer; design: method as in PMID 24252402; settings: 48-hr plasma concentration, patients with breast cancer; cited from earlier work
CYP3A4 [2] = system: CYP3A4; design: method as in PMID 24387695; settings: read-out: IC50 CYP3A4 inhibition; cited from earlier work
CYP3A4 [3] = settings: cited from earlier work
[4] = Phase II study: toxicities (NCI-CTCAE v4.0); format: in vivo, human; settings: 200 mg weekly, n = 8
Experimental: The starting dose and schedule for MK-2206 was 200 mg given weekly in 28-day cycles without interruption. Treatment was administered on an outpatient basis. Two levels of dose reductions were planned (135 mg weekly and 90 mg weekly) with patients taken off the study for additional dose reductions.
Radiologic assessment was done by computed tomography every 8 weeks and responses were measured according to RECIST 1.1[17]. Toxicities were defined by the NCI-Common Terminology Criteria of Adverse Events version 4.0.

CYP2C9 = system: CYP2C9; design: method as in PMID 24387695; settings: read-out: IC50 CYP2C9 inhibition; cited from earlier work

NC1(c2ccc(-c3nc4ccn5c(=O)[nH]nc5c4cc3-c3ccccc3)cc2)CCC1 [MK-2206]
effect on CYP3A mRNA and activity (CYP3A): insignificant effect | IC50 (human Akt (Akt-1)): 0.008 µM | Median PFS ([1]; 8 patients, 200 mg weekly): 1.7 months | best response for all patients ([1]; 8 patients, 200 mg weekly): stable disease | median OS ([1]; 8 patients, 200 mg weekly): 3.5 months | objective response ([1]; 8 patients, 200 mg weekly): No patients had an objective response | duration of stable disease ([1]; observed in two patients): […] | Best response ([1]; subject 1001, Intrahepatic, 200 mg weekly): Progressive disease | Overall Survival ([1]; subject 1001, Intrahepatic): 2.2 | Progression-Free Survival ([1]; subject 1001, Intrahepatic): 1.8 | Best response ([1]; subject 1002, Intrahepatic, 200 mg weekly): Progressive disease | Overall Survival ([1]; subject 1002, Intrahepatic): 3.1 | Progression-Free Survival ([1]; subject 1002, Intrahepatic): 0.5 | Best response ([1]; subject 1003, Intrahepatic, 200 mg weekly): Progressive disease | Overall Survival ([1]; subject 1003, Intrahepatic): 3.8 | Progression-Free Survival ([1]; subject 1003, Intrahepatic): 1.2 | Best response ([1]; subject 1004, Intrahepatic, 200 mg weekly): Progressive disease | Overall Survival ([1]; subject 1004, Intrahepatic): 3.1 | Progression-Free Survival ([1]; subject 1004, Intrahepatic): 1.6 | Best response ([1]; subject 1005, Intrahepatic, 200 mg weekly): Stable disease | Overall Survival ([1]; subject 1005, Intrahepatic): 20.2 | Progression-Free Survival ([1]; subject 1005, Intrahepatic): 3.4 | Best response ([1]; subject 1007, Extrahepatic, 200 mg weekly): Progressive disease | Overall Survival ([1]; subject 1007, Extrahepatic): 6.7 | Progression-Free Survival ([1]; subject 1007, Extrahepatic): 6.6 | Best response ([1]; subject 2006, Intrahepatic, 200 mg weekly): Progressive disease | Overall Survival ([1]; subject 2006, Intrahepatic): 2.8 | Progression-Free Survival ([1]; subject 2006, Intrahepatic): 1.2 | Best response ([1]; subject 2008, Extrahepatic, 200 mg weekly): Stable disease | Overall Survival ([1]; subject 2008, Extrahepatic): 6.1 | Progression-Free Survival ([1]; subject 2008, Extrahepatic): 5.6 | IC50 (human Akt (Akt-2)): 0.012 µM | IC50 (human Akt (Akt-3)): 0.065 µM | plasma concentration reported to be effective (breast cancer): […] | IC50 (CYP3A4 [2]): […] | metabolism in human microsomes (CYP3A4 [3]): converted to oxidative metabolites in human microsomes via CYP3A4 | Anemia, All toxicities (%) [4]: 12.5% | Anemia, Grade 1 (%) [4]: 12.5% | Constipation, All toxicities (%) [4]: 12.5% | Constipation, Grade 1 (%) [4]: 12.5% | Diarrhea, All toxicities (%) [4]: 50% | Diarrhea, Grade 1 (%) [4]: 25% | Diarrhea, Grade 2 (%) [4]: 12.5% | Diarrhea, Grade 3 (%) [4]: 12.5% | Dry Mouth, All toxicities (%) [4]: 25% | Dry Mouth, Grade 1 (%) [4]: 25% | Dry Skin, All toxicities (%) [4]: 38% | Dry Skin, Grade 1 (%) [4]: 25% | Dry Skin, Grade 2 (%) [4]: 12.5% | Fatigue, All toxicities (%) [4]: 50% | Fatigue, Grade 1 (%) [4]: 25% | Fatigue, Grade 2 (%) [4]: 25% | Fever, Grade 1 (%) [4]: 25% | Hand Foot Syndrome, All toxicities (%) [4]: 38% | Hand Foot Syndrome, Grade 1 (%) [4]: 25% | Hand Foot Syndrome, Grade 2 (%) [4]: 12.5% | Hyponatremia, All toxicities (%) [4]: 12.5% | Hypophosphatemia, All toxicities (%) [4]: 25% | Hypophosphatemia, Grade 2 (%) [4]: 25% | Leukopenia, All toxicities (%) [4]: 12.5% | Leukopenia, Grade 1 (%) [4]: 12.5% | Lymphopenia, All toxicities (%) [4]: 75% | Lymphopenia, Grade 1 (%) [4]: 25% | Lymphopenia, Grade 2 (%) [4]: 12.5% | Lymphopenia, Grade 3 (%) [4]: 37.5% | Macular Rash, All toxicities (%) [4]: 63% | Macular Rash, Grade 1 (%) [4]: 12.5% | Macular Rash, Grade 2 (%) [4]: 12.5% | Macular Rash, Grade 3 (%) [4]: 38% | Mucositis, All toxicities (%) [4]: 38% | Mucositis, Grade 1 (%) [4]: 38% | Nausea, All toxicities (%) [4]: 38% | Nausea, Grade 1 (%) [4]: 38% | Thrombocytopenia, All toxicities (%) [4]: 25% | Thrombocytopenia, Grade 1 (%) [4]: 12.5% | Thrombocytopenia, Grade 3 (%) [4]: 12.5% | Vomiting, All toxicities (%) [4]: 50% | Vomiting, Grade 1 (%) [4]: 50% | overall toxicity / tolerability [4]: mild and tolerable; also recorded: mostly grade 1 or 2 and were reversible | Hyponatremia, Grade 4 (%) ([4]; felt to be unrelated to MK-2206): 12.5% | IC50 (CYP2C9): > 35 µM
